Test results as given in patent US9814758B2, “Inhibitors of apoptosis and uses thereof” (CENTRE NATIONAL DE LA RECHERCHE SCIENTIFIQUE-CNRS, priority 2010, dated 2017).
“Also recorded” adds a separate entry of the source. No end group written: not given here.

Experiments:
[1] = biological target: T1, His-tagged intracellular region of Fas receptor (Homo sapiens, UniProt P25445); assay: SPOT peptide array, enzyme-linked blot with His-tagged Fas; format: binding; settings: Fas 10 μg/ml, anti-His/anti-mouse-HRP
T1 construct: His-tagged intracellular region of Fas receptor [10 μg/ml]; purchased Sigma
T1 sequence (P25445 191-335 limits assumed): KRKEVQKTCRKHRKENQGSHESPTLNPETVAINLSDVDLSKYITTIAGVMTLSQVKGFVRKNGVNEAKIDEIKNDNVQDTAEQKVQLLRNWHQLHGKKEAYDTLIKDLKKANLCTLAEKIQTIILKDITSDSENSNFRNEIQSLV
Experimental: FIG. 1: Determination of the DAXX epitope by SPOT synthesis. (A) The amino acid sequence of DAXX was dissected in overlapping peptide arrays (pepscan; 15 mer peptides with a shift of 3 amino acids) and analyzed in enzyme-linked blot. […] Incubation conditions: His-tagged intracellular region of Fas receptor [10 μg/ml]; antibodies: anti-His-(mouse) (Sigma H1029; 1:6,000)/anti-mouse-HRP (Calbiochem 401207; 1:2,000), exposure time: 1 minute. (B) Alignment of the human DAXX sequence comprising the 16-mer KKSRKEKKQTGSGPLG (=DAXXp of SEQ ID NO: 5) with the DAXX sequences of other species (mouse, rat, dog (CANFA) and green monkey (CHLAE)).
FIG. 2: Determination of the optimal length of the DAXX epitope (=DAXXp) by SPOT synthesis. (A) The DAXXp-211 and DAXXp-209 peptides (of SEQ ID NO: 2 and SEQ ID NO: 3, respectively) were successively shortened by one amino acid residue at the N-terminus, at the C-terminus and both at the N- and the C-termini, and analyzed using enzyme-linked blot. […] Incubation conditions: His-tagged intracellular region of Fas receptor [10 μg/ml]; antibodies: anti-His-(mouse) (Sigma H1029; 1:6,000)/anti-mouse-HRP (Calbiochem 401207; 1:2,000), exposure time: 1 minute. (B) Alignment of both peptide sequences DAXXp-211 and DAXXp-209; corresponding to the brightest spots, to determine the optimal DAXX peptide sequence.
FIG. 8: Determination of FADDp15 and its anti-apoptotic effect in cardiomyocytes. (A) The protein sequences of FADD were dissected in overlapping peptide arrays (pepscan; 15 mer peptides with a shift of 3 amino acids) and analyzed using enzyme-linked blot. […] (B) The peptide sequence of FADDp-11 (=FADDp15=SEQ ID NO: 9) was successively shortened by one amino acid residue at the C-terminus, the N-terminus, or at both the C-terminus and the N-terminus, and analyzed using enzyme-linked blot. […] The shortest FADD epitope (a 9-mer with sequence KRKLERVQS (=FADDp=SEQ ID NO: 12)) corresponded to spot No. 24. Incubation conditions: His-tagged intracellular region of Fas receptor [10 μg/ml]; antibodies: anti-His-(mouse) (Sigma H1029; 1:6,000)/anti-mouse-HRP (Calbiochem 401207; 1:2,000), exposure time: 1 minute.
The peptides were synthesized on N-modified CAPE-membranes (Bhargava et al, Mol. Recognit, 2002, 15: 145) and prepared by a MultiPep SPOT-robot (INTAVIS Bioanalytical Instruments AG, Cologne, Germany). Array design was performed with the aid of the in-house software LISA 1.71. The synthesis started with spot definition using a standard protocol [Frank, Tetrahedron, 1992, 48: 9217), followed by the coupling of a solution of Fmoc-cysteine-(Trt)-Opfp (0.3M) in N-methylpyrolidone (NMP) and Fmoc-alanine-Opfp (double coupling, 15 min reaction each). After Fmoc cleavage with piperidine in DMF (20%), 4-hydroxymethylphenoxyacetic acid (HMPA) dissolved in dimethylformamide (DMF, 0.6M solution) and activated with EEDQ (1.1 equiv) was added, and samples were directly spotted on the membrane (4× coupling, 15 min reaction each). The membrane was acetylated with acetic anhydride in DMF (2%), washed with DMF (5×3 min), ethanol (2×3 min), and diethyl ether (2×3 min), and finally air dried. Solutions of Fmoc-amino acid-OH (0.4M) activated with 1,1′-carbonyldiimidazole (CDI, 3 equiv) in DMF were spotted on the membrane (4× coupling, 15 min reaction time each). Proline, tyrosine, and glutamine were activated with 1,1′-carbonyldi(1,2,4-triazole) (CDT). The Fmoc group was removed from the spots, and the peptide sequences were completed using the standard SPOT synthesis protocol (Frank, Tetrahedron, 1992, 48: 9217) followed by a N-terminal tag with β-alanine.
The primary sequence of the DAXX protein (SEQ ID NO: 1) was dissected in overlapping 15 mer peptides (3 amino acids shift) and all the peptides (243 peptides) were synthesized on cellulose membrane by SPOT synthesis as described above. The peptide library was incubated with the His-tagged intra-cellular region of the Fas receptor (Sigma). […]

[2] = tested on: primary cardiomyocytes; assay: STS-induced DNA fragmentation (Cell Death detection ELISA PLUS) in primary cardiomyocytes; format: cell-based, mouse; settings: for ability to decrease cell apoptosis / protect the cells: against STS; for reduction of DNA fragmentation: peptide given together with staurosporine, 1 μM, related to STS-treated cells (=100%), FIG. 5B
Experimental: FIG. 5: In vitro evaluation of the anti-apoptotic activity of CPPs and CPP-conjugates. Workflow and quantitation of DNA fragmentation in (A) C2C12 cells, (B) primary cardiomyocytes, (C) H9c2 cells and (D) NG108-15 cells. Data were normalized to 100% STS. Data shown are the means±SEM, with n≧5. Cells were seeded in 24-well plates and grown overnight. The next day, the cells were incubated with STS alone or with STS+1 μM peptide (in OPTI-MEM) (OPTI-MEM® is a modification of Eagle's Minimum Essential Media, buffered with HEPES and sodium bicarbonate, and supplemented with hypoxanthine, thymidine, sodium pyruvate, L-glutamine, trace elements, and growth factors) (STS concentration and incubation time for each cells are given in the figure). Thereafter, solutions were removed, replaced by complete medium and further incubated for 40 h. Following the regeneration phase, the cells were lyzed and DNA fragmentation was detected according to manufacturer's instructions (Cell Death detection ELISA^PLUS kit—Roche Diagnostics).
FIG. 6: Anti-apoptotic activity of variants of the Tat-DAXXp sequence on primary cardiomyocytes. As described in the caption of FIG. 5, the different analogues of the DAXXp sequence (see Table 2) were assessed for anti-apoptotic properties against STS (Cell Death detection ELISA^PLUS kit—Roche Diagnostics) (A-B). None of the analogues were able to protect the primary cardiomyocytes—a fact which confirms that the 16mer DAXXp has the optimal length and sequence for highest cardioprotective effect.
FIG. 7: Comparison of the murine/rat DAXXp with the human DAXXp sequence in terms of anti-apoptotic activity on C2C12 cells, primary cardiomyocytes, and H9c2. The murine DAXXp sequence conjugated to Tat (Tat-mDAXXp—SEQ ID NO: 61) which is identical to the rat DAXXp sequence (see FIG. 1B), was compared to the human construct (Tat-DAXXp) in terms of anti-apoptotic properties against STS (Cell Death detection ELISA^PLUS kit—Roche Diagnostics). The C2C12 cells and the primary cardiomyocytes used were from mice and the H9c2 cells from rat.
FIG. 9: Comparison of FADDp constructs with Tat-DAXXp in terms of anti-apoptotic activity in primary cardiomyocytes and in H9c2 cells. Quantification of DNA normalized to 100% STS. Data shown are the means±SEM, with n≧5. Cells were seeded in 24-well plates and grown overnight. The next day, the cells were incubated with STS alone or with STS+1 μM peptide (in OPTI-MEM®) (OPTI-MEM® is a modification of Eagle's Minimum Essential Media, buffered with HEPES and sodium bicarbonate, and supplemented with hypoxanthine, thymidine, sodium pyruvate, L-glutamine, trace elements, and growth factors) (STS concentration is given in the figure and incubation time is given in FIG. 5). Thereafter, solutions were removed, replaced by complete medium and further incubated for 40 hours. Following the regeneration phase, the cells were lyzed and DNA fragmentation was detected according to manufacturer's instructions (Cell Death detection ELISA^PLUS kit—Roche Diagnostics).
FIG. 10: Comparison of Tat-DAXXp and Tat-FADDp15 alone and in combination in primary cardiomyocytes (A) and in H9c2 cells (B).
Thereafter, the capacity of these peptides to inhibit apoptosis induced by staurosporine was evaluated. Apoptosis was determined using the Cell Death detection ELISA^PLUS kit (Roche) measuring the DNA fragmentation.
In most publications, anti-apoptotic peptides currently available in the art are administrated 3-4 hours prior to apoptosis induction, which is poorly relevant to a clinical application. For that reason, the protocol used in the present study included administration of the peptides together with the staurosporine. […] This was not observed with CPP alone or with the Tat-scrDAXXp or Tat-ncDAXXp negative controls. […] To better compare the results, the DNA fragmentation (described by the enrichment factor) is related to the staurosporine-treated cells (=100%).

[3] = tested on: C57Bl6 mice, myocardial ischemia-reperfusion; assay: Myocardial ischemia-reperfusion IR60' (40 min ischemia, 60 min reperfusion); format: in vivo, mouse; settings: IR60'; data not shown
Experimental: FIG. 11: In vivo experimental protocol. C57Bl6 mice underwent a surgical protocol of myocardial ischemia-reperfusion (IR). The black box represents the period of ischemia to which the mice were submitted. Infarct size or cell death measurements were performed at the end of surgery for each protocol (indicated by ↑). IR60′: 40 minutes of Ischemia, 60 minutes of Reperfusion. IR24h: 40 minutes Ischemia and 24 hours Reperfusion.
FIG. 12: Cardioprotective effects of Tat-DAXXp (1 mg/kg—IV) in mice subjected to IR60′. Infarct size (in % of area at risk) and internucleosomal DNA fragmentation determined by ELISA were quantified in mice subjected to IR60′ and treated with Tat, Tat-DAXXp or Tat-scrDAXXp (1 mg/kg) as well as with DAXXp (10 mg/kg) (intravenous injection (IV) 5 minutes before reperfusion). Means±SEM were plotted for (A): Area at risk/LV mass (left ventricle), (B): Infarct size (in % of area at risk) and (C): (I/NI ratio) corresponding to the ratio of soluble nucleosome in the ischemic portion versus the non-ischemic portion of LV tissues. Statistical analysis was performed using One-way ANOVA with Neuman-Keuls post test for multiple comparisons (GraphPad Prism software). P<0.05, P<0.01 and P<0.001 versus Tat-DAXXp were noted *, **, and *** respectively. P=ns (not significant) for P>0.05.
FIG. 13: Dose response for Tat-DAXXp and DAXXp in mice subjected to IR60′. Infarct size (in % of area at risk) and internucleosomal DNA fragmentation determined by ELISA were quantified in mice subjected to IR60′ and treated with Tat (1 mg/kg), Tat-DAXXp (0.1, 1 and 10 mg/kg) or DAXXp (0.1, 1 and 10 mg/kg) injected intravenously 5 minutes before reperfusion. Means±SEM were plotted for (A): Area at risk/LV mass (left ventricle), (B): Infarct size (in % of area at risk) and (C): (I/NI ratio) corresponding to the ratio of soluble nucleosome in the ischemic versus the non-ischemic portion of LV tissues.
In a second step, the cardioprotective effects of DAXXp were evaluated in an in vivo model of myocardial ischemia-reperfusion. Acute myocardial ischemia and reperfusion were performed in C57Bl6 mice subjected to a surgical model of reversible coronary occlusion. Male mice (22-28 g) were anesthetized and ventilated via a tracheal intubation using a Harvard rodent respirator. Body temperature was maintained between 36.8° C. and 37.0° C. via a thermo-regulated surgical table. The chest was opened by left lateral thoracotomy and a reversible coronary artery snare occluder was placed around the left coronary artery. Mice were randomly allocated to two different surgical protocols of myocardial ischemia-reperfusion (FIG. 11). At the end of reperfusion, the artery was re-occluded and phtalocyanine blue dye was injected into the left ventricle cavity and allowed to perfuse the non-ischemic portions of the myocardium. To determine the effect of DAXXp on myocardial infarct size, peptides were administered intravenously (caudal vein) 5 minutes before reperfusion during the surgical protocol of ischemia-reperfusion. The control groups were treated with Tat or Pip2b peptide (for CPP alone). The dose of 1 mg/kg was chosen (μmolar range) and dose responses for 0.1 and 10 mg/kg were also tested.
At the end of reperfusion, mice were re-anaesthetized, the coronary ligature definitively tightened, the blue dye injected and the harvested left ventricles were dedicated to infarct size (TTC method, Schwartz et al, J Thromb. Thromb., 2000; 10: 181-187) or DNA fragmentation measurements (Cell death detection ELISA^PLUS kit, Roche Diagnostics) in order to investigate the cardioprotective effects against ischemia-reperfusion injuries.

Row | interaction with the Fas receptor / signal intensity of the spot [1] | interaction with the Fas receptor / signal intensity of the spot ([1]; listed as Spot No. 211) | Substance | ability to decrease cell apoptosis / protect the cells [2] | reduction of DNA fragmentation [2] | cardioprotection (infarct size, DNA fragmentation) [3]
1 |  |  | GRKKRRQRRRPPQ-AKLYVYINELCTVLK-NH2 [Tat-ncDAXXp] |  | not observed | 
2 | interact with the Fas receptor |  | KRKLERVQS (listed as Homo sapiens) [FADDp] | decrease cell apoptosis |  | 
3 | interact with the Fas receptor |  | DAXXp-14: fragment of the DAXX protein, amino acid sequence set forth in SEQ ID NO: 6 (SRKEKKQTGSGPLG; listed as Homo sapiens) | only DAXXp is capable of decreasing cell apoptosis |  | 
4 | interact with the Fas receptor | highest signal intensity | KSRKEKKQTGSGPLG (listed as Homo sapiens) [DAXXp-15] | only DAXXp is capable of decreasing cell apoptosis |  | 
5 |  |  | GRKKRRQRRRPPQ-KKGRKQSGESLGTPKK-NH2 (GRKKRRQRRRPPQKKGRKQSGESLGTPKK-NH2) [Tat-scrDAXXp, negative control; scrambled version of DAXXp conjugated to Tat] |  | not observed | not observed

Row | Substance | interaction with the Fas receptor / signal intensity of the spot [1] | interaction with the Fas receptor / signal intensity of the spot ([1]; listed as Spot No. 211) | ability to decrease cell apoptosis / protect the cells [2] | reduction of DNA fragmentation [2] | cardioprotection (infarct size, DNA fragmentation) [3]
6 | VGKRKLERVQSGLDL (listed as Homo sapiens) [FADDp15] | higher signal intensity; also recorded: interact with the Fas receptor |  | decrease cell apoptosis |  | 
